Read-outs that look alike come from different tables or passages of the source. Starred links: 1 amine or outer side, 2 acyl side, 3 side chain; linkers in the order of their positions; H or OH if unused. Non-standard residues stand in square brackets, D forms with d. Groups on a side chain read outwards from the residue. No end group written: not given here. *: point of attachment. C20 diacid = O=C(O)CCCCCCCCCCCCCCCCCCC(=O)*; C18 diacid = O=C(O)CCCCCCCCCCCCCCCCC(=O)*; γGlu = O=C(O)[C@H](CCC(=O)[*:2])N[*:1]; εLys = N[C@@H](CCCCN[*:1])C(=O)[*:2]; β3hQ = NC(=O)CC[C@H](N)CC(=O)O; AEEA = NCCOCCOCC(=O)O; Aib = CC(C)(N)C(=O)O; Ahx = NCCCCCC(=O)O
What was measured:
Format in all cases: cell-based
Details in all cases: CreLuc reporter gene assay
hGLP1R = molecular target: T1, hGLP1R (Homo sapiens, UniProt P43220); assay: hGLP1R CreLuc reporter gene assay in 0.5% and 100% plasma
T1 construct: expressed in transfected cells; host or cells: HEK-293 cells carrying a CRE-luciferase reporter gene
Outline: (§1)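 Agonist EC50s came from 8-concentration curves over four decades, fitted by non-linear variable-slope regression of CRE-driven luciferase luminescence. Cells were exposed 4 h at 37 °C, in buffer with 0.5% human plasma or in 100% plasma; GIPR was expressed in CHO cells, GLP-1R and NPY2R in HEK cells.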

hGIPR = molecular target: T2, hGIPR (Homo sapiens, UniProt P48546); assay: hGIPR CreLuc reporter gene assay in 0.5% and 100% plasma
T2 construct: expressed in transfected cells; host or cells: CHO cells carrying a CRE-luciferase reporter gene
T2 sequence (P48546 22-466): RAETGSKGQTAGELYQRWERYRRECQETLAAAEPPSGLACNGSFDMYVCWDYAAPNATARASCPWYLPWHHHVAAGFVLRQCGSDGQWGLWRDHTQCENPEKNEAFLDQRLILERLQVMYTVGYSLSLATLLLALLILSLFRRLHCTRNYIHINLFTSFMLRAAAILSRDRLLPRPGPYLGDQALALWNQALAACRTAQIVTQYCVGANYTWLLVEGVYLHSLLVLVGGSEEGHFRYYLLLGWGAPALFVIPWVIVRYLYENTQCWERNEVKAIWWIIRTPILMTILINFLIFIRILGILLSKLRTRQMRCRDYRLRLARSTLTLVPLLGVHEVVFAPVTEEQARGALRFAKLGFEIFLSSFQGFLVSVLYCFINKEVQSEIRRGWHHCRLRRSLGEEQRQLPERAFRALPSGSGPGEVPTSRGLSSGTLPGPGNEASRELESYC
Outline: as §1

hNPY2R = molecular target: T3, hNPY2R (Homo sapiens, UniProt P49146); assay: hNPY2R CreLuc reporter gene assay in 0.5% and 100% plasma
T3 construct: expressed in transfected cells; host or cells: HEK-293 cells carrying a CRE-luciferase reporter gene
T3 sequence (P49146 1-381): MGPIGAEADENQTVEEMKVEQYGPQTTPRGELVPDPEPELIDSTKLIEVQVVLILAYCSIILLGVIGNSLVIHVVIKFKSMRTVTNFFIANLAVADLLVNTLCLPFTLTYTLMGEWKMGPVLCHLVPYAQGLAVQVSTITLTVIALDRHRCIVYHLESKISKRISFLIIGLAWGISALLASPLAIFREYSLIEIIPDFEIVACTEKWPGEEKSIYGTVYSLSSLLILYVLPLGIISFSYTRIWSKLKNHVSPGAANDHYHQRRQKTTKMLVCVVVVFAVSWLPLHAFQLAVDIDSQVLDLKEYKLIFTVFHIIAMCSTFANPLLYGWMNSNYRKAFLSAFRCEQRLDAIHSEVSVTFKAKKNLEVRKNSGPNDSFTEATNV
Outline: as §1

[1] = 0.5% human plasma, read-out: hGLP1R 0.5% hP
[2] = 0.5% human plasma, read-out: hGIPR 0.5% hP
[3] = 100% human plasma, read-out: hGIPR 100% hP
[4] = 100% human plasma, read-out: hNPY2R 100% hP
[5] = 0.5% human plasma, read-out: hNPY2R 0.5% hP

T1 sequence (P43220 24-463): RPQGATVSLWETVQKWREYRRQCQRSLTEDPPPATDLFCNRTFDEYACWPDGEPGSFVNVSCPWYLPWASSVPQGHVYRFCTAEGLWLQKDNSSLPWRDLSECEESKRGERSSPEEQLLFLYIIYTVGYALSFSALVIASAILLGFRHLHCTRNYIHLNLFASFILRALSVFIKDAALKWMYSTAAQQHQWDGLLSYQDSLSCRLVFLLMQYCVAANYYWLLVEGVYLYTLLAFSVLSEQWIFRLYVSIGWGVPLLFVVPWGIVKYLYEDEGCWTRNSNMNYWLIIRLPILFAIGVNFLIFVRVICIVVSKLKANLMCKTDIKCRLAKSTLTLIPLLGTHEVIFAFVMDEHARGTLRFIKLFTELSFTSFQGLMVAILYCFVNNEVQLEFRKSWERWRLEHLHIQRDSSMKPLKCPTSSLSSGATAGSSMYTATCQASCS

Substance | EC50 (hGLP1R; [1]) [nM] | EC50 (hGIPR; [2]) [nM] | EC50 (hGIPR; [3]) [nM] | EC50 (hNPY2R; [4]) [nM] | EC50 (hNPY2R; [5]) [nM] | EC50 (hGLP1R; 100% human plasma, read-out: hGLP1R 100% hP) [nM]
H-Y[Aib]EGTFTSDYSI[Aib]LEKQAQ[Aib]AFVEWLIK([εLys-γGlu-γGlu-γGlu-γGlu-γGlu-γGlu-C20 diacid])GGPSEPQSIRHYYNWLTRQRY-NH2 [Compound 48, Y-Aib-E-G-T-F-T-S-D-Y-S-I-Aib-L-E-K-Q-A-Q-Aib-A-F-V-E-W-L-I-K(1,3)-GGPSEPQSIRHYYNWLTRQRY-NH2.C20DA-gGlu-gGlu-gGlu-gGlu-gGlu-gGlu-eLys(1,2)] | 0.07 | 0.07 | 0.68 | 35.2 | – | –
H-Y[Aib]EGTFTSDYSI[Aib]LEKQAQ[Aib]AFVQWLIK([AEEA-AEEA-γGlu-γGlu-γGlu-γGlu-γGlu-C20 diacid])GGPSEPASLRHYYNWLTRQRY-NH2 [Compound 111, Y-Aib-E-G-T-F-T-S-D-Y-S-I-Aib-L-E-K-Q-A-Q-Aib-A-F-V-Q-W-L-I-K(1,3)-GGPSEPASLRHYYNWLTRQRY-NH2.C20DA-gGlu-gGlu-gGlu-gGlu-gGlu-OEG-OEG(1,2)] | 0.12 | 0.55 | – | 36.8 | 13.4 | –
H-Y[Aib]EGTFTSDYSI[Aib]LEKQAQ[Aib]AFVEWLIK([εLys-γGlu-γGlu-γGlu-γGlu-γGlu-γGlu-C20 diacid])GGPSSGASVRHYYNWLTRQRY-NH2 [Compound 117, Y-Aib-E-G-T-F-T-S-D-Y-S-I-Aib-L-E-K-Q-A-Q-Aib-A-F-V-E-W-L-I-K(1,3)-GGPSSGASVRHYYNWLTRQRY-NH2.C20DA-gGlu-gGlu-gGlu-gGlu-gGlu-gGlu-eLys(1,2)] | 0.13 | 0.14 | 1.18 | 24.6 | – | –
H-Y[Aib]EGTFTSDYSI[Aib]LEKQAQ[Aib]AFVEWLIK([Ahx-γGlu-γGlu-γGlu-γGlu-γGlu-C20 diacid])GGPSEGASLRHYYNWLTRQRY-NH2 [Compound 301, Y-Aib-E-G-T-F-T-S-D-Y-S-I-Aib-L-E-K-Q-A-Q-Aib-A-F-V-E-W-L-I-K(1,3)-GGPSEGASLRHYYNWLTRQRY-NH2.C20DA-gGlu-gGlu-gGlu-gGlu-gGlu-AHX(1,2)] | 0.23 | 0.58 | 3.27 | 99.3 | – | –
Y[Aib]EGTFTSDYSI[Aib]LEKQAQ[Aib]AFVQWLIK([Glu-γGlu-γGlu-γGlu-γGlu-C20 diacid])GGPSEGASLRHYYNWLTRQRY-NH2 [Compound 243, Y-Aib-E-G-T-F-T-S-D-Y-S-I-Aib-L-E-K-Q-A-Q-Aib-A-F-V-Q-W-L-I-K(1,3)-GGPSEGASLRHYYNWLTRQRY-NH2.C20DA-gGlu-gGlu-gGlu-gGlu-Glu(1,2)] | 0.12 | 0.54 | – | 50.6 | – | –
H-Y[Aib]EGTFTSDYSI[Aib]LEKQAQ[Aib]AFVEWLIK([εLys-γGlu-γGlu-γGlu-γGlu-γGlu-γGlu-C20 diacid])GGPSSYESLRHYYNWLTRQRY-NH2 [Compound 50, Y-Aib-E-G-T-F-T-S-D-Y-S-I-Aib-L-E-K-Q-A-Q-Aib-A-F-V-E-W-L-I-K(1,3)-GGPSSYESLRHYYNWLTRQRY-NH2.C20DA-gGlu-gGlu-gGlu-gGlu-gGlu-gGlu-eLys(1,2)] | 0.13 | 0.12 | – | – | 11.8 | –
Y[Aib]EGTFTSDYSI[Aib]LEKQAE[Aib]AFVEWLIK([AEEA-AEEA-γGlu-γGlu-γGlu-γGlu-C18 diacid])GGPSSGASLRHYYNWLTRQRY-NH2 [Compound 150, Y-Aib-E-G-T-F-T-S-D-Y-S-I-Aib-L-E-K-Q-A-E-Aib-A-F-V-E-W-L-I-K(1,3)-GGPSSGASLRHYYNWLTRQRY-NH2.C18DA-gGlu-glu-Glu-Glu-OEG-OEG(1,2)] | 0.31 | 0.27 | – | – | 16.7 | –
H-Y[Aib]EGTFTSDYSI[Aib]LEKQAQ[Aib]EFVQWLIK([γGlu-γGlu-γGlu-γGlu-C18 diacid])GGPSEGASLRHYYNWLTRQRY-NH2 [Compound 202, Y-Aib-E-G-T-F-T-S-D-Y-S-I-Aib-L-E-K-Q-A-Q-Aib-E-F-V-Q-W-L-I-K(1,3)-GGPSEGASLRHYYNWLTRQRY-NH2.C18DA-gGlu-gGlu-gGlu-gGlu(1,2)] | 0.21 | 0.26 | 1.81 | – | 12.9 | 10.4
H-Y[Aib]EGTFTSDYSI[Aib]LEKQAQ[Aib]AFVEWLIK([AEEA-AEEA-γGlu-γGlu-γGlu-γGlu-C20 diacid])GGPSEPASLRHYYNWLTRQRY-NH2 [Compound 226, Y-Aib-E-G-T-F-T-S-D-Y-S-I-Aib-L-E-K-Q-A-Q-Aib-A-F-V-E-W-L-I-K(1,3)-GGPSEPASLRHYYNWLTRQRY-NH2.C20DA-gGlu-gGlu-gGlu-gGlu-OEG-OEG(1,2)] | 0.24 | 0.43 | – | 46.3 | – | –
H-Y[Aib]EGTFTSDYSI[Aib]LEKQAQ[Aib]AFVEWLIK([εLys-γGlu-γGlu-γGlu-γGlu-γGlu-γGlu-C20 diacid])GGPSEGASLRHYYNWLTR[β3hQ]RY-NH2 [Compound 277, Y-Aib-E-G-T-F-T-S-D-Y-S-I-Aib-L-E-K-Q-A-Q-Aib-A-F-V-E-W-L-I-K(1,3)-G-G-P-S-E-G-A-S-L-R-H-Y-Y-N-W-L-T-R-bHGln-R-Y-NH2.C20DA-gGlu-gGlu-gGlu-gGlu-gGlu-gGlu-eLys(1,2)] | 0.19 | 0.11 | 0.68 | – | > 99.9 | –
H-Y[Aib]EGTFTSDYSI[Aib]LEKQAQ[Aib]AFVQWLIK([εLys-γGlu-γGlu-γGlu-γGlu-γGlu-γGlu-C18 diacid])GGPSSGASLRHYYNWLTRQRY-NH2 [Compound 170, Y-Aib-E-G-T-F-T-S-D-Y-S-I-Aib-L-E-K-Q-A-Q-Aib-A-F-V-Q-W-L-I-K(1,3)-GGPSSGASLRHYYNWLTRQRY-NH2.C18DA-gGlu-gGlu-gGlu-gGlu-gGlu-gGlu-eLys(1,2)] | 0.09 | 0.24 | 1.15 | – | 19.2 | –
Y[Aib]EGTFTSDYSI[Aib]LEKQAQ[Aib]AFVEWLIK([AEEA-AEEA-γGlu-γGlu-γGlu-γGlu-γGlu-C20 diacid])GGPSSPASLRHYYNWLTRQRY-NH2 [Compound 120, Y-Aib-E-G-T-F-T-S-D-Y-S-I-Aib-L-E-K-Q-A-Q-Aib-A-F-V-E-W-L-I-K(1,3)-GGPSSPASLRHYYNWLTRQRY-NH2.C20DA-gGlu-gGlu-gGlu-gGlu-gGlu-OEG-OEG(1,2)] | 0.11 | 0.34 | 1.44 | 39.2 | 10.7 | –

Source: US20240247080A1, “GLP1/GIP/NPY2 RECEPTOR TRIPLE AGONISTS” (Boehringer Ingelheim International GmbH, priority 2022, published 2024)
